The assay has as its target T1, sodium-proton exchanger of subtype 3 (NHE3) (Homo sapiens, UniProt P48764).
T1 construct: expressed in transfected cells
T1 sequence (P48764 26-834): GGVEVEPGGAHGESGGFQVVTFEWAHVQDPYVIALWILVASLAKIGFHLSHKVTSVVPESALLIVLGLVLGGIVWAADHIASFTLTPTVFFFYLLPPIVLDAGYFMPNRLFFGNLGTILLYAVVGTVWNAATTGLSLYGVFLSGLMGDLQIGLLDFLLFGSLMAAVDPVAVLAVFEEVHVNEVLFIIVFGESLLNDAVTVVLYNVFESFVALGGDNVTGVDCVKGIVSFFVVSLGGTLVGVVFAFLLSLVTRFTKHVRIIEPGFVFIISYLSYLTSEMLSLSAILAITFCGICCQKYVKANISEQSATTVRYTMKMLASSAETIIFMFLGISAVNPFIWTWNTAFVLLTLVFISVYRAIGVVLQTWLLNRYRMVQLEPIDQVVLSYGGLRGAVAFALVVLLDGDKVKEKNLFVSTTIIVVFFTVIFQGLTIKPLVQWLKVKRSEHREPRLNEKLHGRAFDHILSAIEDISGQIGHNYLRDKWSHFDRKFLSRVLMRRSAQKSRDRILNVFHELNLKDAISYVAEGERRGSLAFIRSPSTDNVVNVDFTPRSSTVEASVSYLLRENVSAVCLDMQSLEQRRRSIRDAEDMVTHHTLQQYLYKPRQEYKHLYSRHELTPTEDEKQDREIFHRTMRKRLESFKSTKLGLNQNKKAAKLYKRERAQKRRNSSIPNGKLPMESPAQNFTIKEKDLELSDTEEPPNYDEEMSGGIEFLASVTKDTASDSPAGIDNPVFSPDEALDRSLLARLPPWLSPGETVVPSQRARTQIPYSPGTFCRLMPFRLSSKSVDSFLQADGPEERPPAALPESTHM
In words: Recovery of intracellular pH (pHi) after acidification in LAP1 cells stably expressing NHE3 (BCECF fluorescence, FLIPR). The format is cell-based. To be noted: LAP1 cells stably expressing NHE3, pH recovery after acidification, range 1 is % inhibition at 10 μM.

[1] abbreviates: read-out: Activity range (inhibitory effect on NHE3).

Consider 29 compounds from patent US8822449B2, “Substituted aminoindanes and analogs thereof, and the pharmaceutical use thereof” (Sanofi, priority 2008, dated 2014).

SMILES strings stand for the structures. Read-outs that look alike come from different tables or passages of the source. Bounds are passed on as bounds.

Turning to `CN1CC(=O)N(c2ccc(O[C@H]3c4cc(Cl)cc(Cl)c4C[C@@H]3N3CC[C@@H](O)C3)c(Cl)c2)C1=O` [Example 422, 3-{3-chloro-4-[(1S,2S)-4,6-dichloro-2-((R)-3-hydroxypyrrolidin-1-yl)indan-1-yloxy]phenyl}-1-methylimidazolidine-2,4-dione], the IC50 under setting [1] is less than 1000 nM.

In the case of `CS(=O)(=O)c1ccccc1O[C@H]1c2ccccc2CC[C@@H]1N1CCC[C@@H](N)C1` (racemic) [Example 45, (R)-1-[rac-trans-(1,2)-1-(2-methanesulfonylphenoxy)-1,2,3,4-tetrahydronaphthalen-2-yl]piperidin-3-ylamine], the inhibition at 10 µM under setting [1] lay in the range of 20 to 50%.

With `N#Cc1ccc(O[C@H]2c3cc(Cl)cc(Cl)c3C[C@@H]2N2CC[C@@H](O)C2)c(F)c1` [Example 554, 4-[trans-(1S,2S)-4,6-dichloro-2-((R)-3-hydroxypyrrolidin-1-yl)indan-1-yloxy]-3-fluorobenzonitrile], the IC50 under setting [1] lay in the range of 1000 to 10000 nM.

For the compound `Cc1cc(C)c2cccnc2c1O[C@H]1c2ccccc2CC[C@@H]1N1CCOCC1` (racemic) [Example 573, 5,7-dimethyl-8-(rac-trans-(1,2)-2-morpholin-4-yl-1,2,3,4-tetrahydronaphthalen-1-yloxy)quinoline], the inhibition at 10 µM under setting [1] lay in the range of 20 to 50%.

In the case of `Cc1noc(C)c1-c1ccc(O[C@H]2c3ccccc3C[C@@H]2N2CCCC2)cc1` [Example 407, 3,5-dimethyl-4-[4-(trans-(1S,2S)-2-pyrrolidin-1-ylindan-1-yloxy)phenyl]-isoxazole], under setting [1], the IC50 was less than 1000 nM.

Compound `O=C1CCCN1c1cccc(O[C@H]2c3ccccc3C[C@@H]2N2CCCC2)c1` (racemic) [Example 255, 1-[3-(rac-trans-(1,2)-2-pyrrolidin-1-ylindan-1-yloxy)phenyl]pyrrolidin-2-one] came in with an IC50 (Activity range (inhibitory effect on NHE3)) of 1000 to 10000 nM.

For `N#Cc1ccc(O[C@H]2c3ccccc3CC[C@@H]2N2CCOCC2)cc1F` (racemic) [Example 396, 2-fluoro-4-(rac-trans-(1,2)-2-morpholin-4-yl-1,2,3,4-tetrahydronaphthalen-1-yloxy)benzonitrile], the inhibition at 10 µM under setting [1] lay within 20 to 50%.

Regarding `N[C@H]1CCCN([C@H]2CCc3ccccc3[C@@H]2Oc2ccc(F)cc2)C1` (racemic) [Example 179, (S)-1-[rac-trans-(1,2)-1-(4-fluorophenoxy)-1,2,3,4-tetrahydronaphthalen-2-yl]piperidin-3-ylamine], the inhibition at 10 µM under setting [1] was 20 to 50%.

With `COc1cc(Cl)cc(O[C@H]2c3ccccc3CC[C@@H]2N2CCC[C@@H](N)C2)c1` (racemic) [Example 54, (R)-1-[rac-trans-(1,2)-1-(3-chloro-5-methoxyphenoxy)-1,2,3,4-tetrahydronaphthalen-2-yl]piperidin-3-ylamine], under setting [1], the inhibition at 10 µM is 20 to 50%.

For the compound `N[C@@H]1CCCN([C@H]2CCc3ccccc3[C@@H]2Oc2ccc(Cl)cc2)C1` (racemic) [Example 66, (R)-1-[rac-trans-(1,2)-1-(4-chlorophenoxy)-1,2,3,4-tetrahydronaphthalen-2-yl]piperidin-3-ylamine], the inhibition at 10 µM under setting [1] lay in the range of 20 to 50%.

Regarding `N[C@@H]1CCCN([C@@H]2Cc3ccccc3[C@H]2Oc2ccc3ccncc3c2)C1` (racemic) [Example 85, (R)-1-[rac-trans-(1,2)-1-(isoquinolin-7-yloxy)indan-2-yl]piperidin-3-ylamine], the IC50 under setting [1] was 1000 to 10000 nM.

As for `Cc1ccc(O[C@H]2c3ccccc3CC[C@@H]2N2CCC[C@@H](N)C2)c(Cl)c1` (racemic) [Example 38, (R)-1-[rac-trans-(1,2)-1-(2-chloro-4-methylphenoxy)-1,2,3,4-tetrahydronaphthalen-2-yl]piperidin-3-ylamine], the inhibition at 10 µM under setting [1] fell in the range of 20 to 50%.

Regarding `N[C@@H]1CCCN([C@H]2Cc3ccccc3[C@@H]2Oc2ccc(S(N)(=O)=O)cc2)C1` [Example 552, 4-[trans-(1S,2S)-2-((R)-3-aminopiperidin-1-yl)indan-1-yloxy]benzenesulfonamide], the IC50 under setting [1] was less than 1000 nM.

For the compound `O=C1OCCN1c1cccc(O[C@H]2c3cc(Cl)cc(Cl)c3C[C@@H]2N2CC[C@@H](O)C2)c1` [Example 419, 3-{3-[(1S,2S)-4,6-dichloro-2-((R)-3-hydroxypyrrolidin-1-yl)indan-1-yloxy]phenyl}oxazolidin-2-one], the IC50 under setting [1] was in the range of 1000 to 10000 nM.

`Cc1cc(C)c2cccnc2c1O[C@H]1c2ccccc2CC[C@@H]1N1CCC[C@H](N)C1` (racemic) [Example 187, (S)-1-[rac-trans-(1,2)-1-(5,7-dimethylquinolin-8-yloxy)-1,2,3,4-tetrahydronaphthalen-2-yl]piperidin-3-ylamine]: the inhibition at 10 µM under setting [1] was 20 to 50%.

As for `Cc1nc(C(C)(C)C)cn1-c1ccc(O[C@H]2c3cc(Cl)cc(Cl)c3C[C@@H]2N2CC[C@@H](O)C2)c(F)c1` [Example 729, (R)-1-{trans-(1S,2S)-1-[4-(4-tert-Butyl-2-methyl-imidazol-1-yl)-2-fluoro-phenoxy]-4,6-dichloro-indan-2-yl}-pyrrolidin-3-ol], the IC50 under setting [1] was 1000 to 10000 nM.

Take `CS(=O)(=O)c1ccc(O[C@H]2c3ccccc3C[C@@H]2CN2CCCC2)cc1` (racemic) [Example 274, 1-[rac-trans-(1,2)-1-(4-methanesulfonylphenoxy)indan-2-ylmethyl]pyrrolidine]: under setting [1], the IC50 is 1000 to 10000 nM.

Consider `CCN(CC)[C@@H]1Cc2ccccc2[C@H]1Oc1ccc2sc(C)nc2c1` (racemic) [Example 625, Diethyl-[rac-trans-(1,2)-1-(2-methylbenzothiazol-5-yloxy)indan-2-yl]amine], for which the IC50 under setting [1] is 1000 to 10000 nM.

Consider `COc1cc(O[C@H]2c3ccccc3CC[C@@H]2N2CCC[C@H](N)C2)ccc1Br` (racemic) [Example 173, (S)-1-[rac-trans-(1,2)-1-(4-bromo-3-methoxyphenoxy)-1,2,3,4-tetrahydronaphthalen-2-yl]piperidin-3-ylamine], for which, under setting [1], the inhibition at 10 µM fell in the range of 20 to 50%.

As for `CC(=O)Nc1cccc(O[C@H]2c3cc(Cl)cc(Cl)c3C[C@@H]2N2CCNCC2)c1` [Example 665, N-[3-(trans-(1S,2S)-4,6-dichloro-2-piperazin-1-ylindan-1-yloxy)phenyl]acetamide], under setting [1], the IC50 was less than 1000 nM.

With `NS(=O)(=O)c1ccc(O[C@H]2c3cc(Cl)cc(Cl)c3C[C@@H]2N2CCCC2)cc1` [Example 457, 4-((1S,2S)-4,6-dichloro-2-pyrrolidin-1-ylindan-1-yloxy)benzenesulfonamide], the IC50 under setting [1] is less than 1000 nM.

For `N#Cc1cc(Br)ccc1O[C@H]1c2ccccc2CC[C@@H]1N1CCC[C@@H](N)C1` (racemic) [Example 369, 2-[rac-trans-(1,2)-2-((S)-3-aminopiperidin-1-yl)-1,2,3,4-tetrahydronaphthalen-1-yloxy]-5-bromobenzonitrile], the inhibition at 10 µM under setting [1] lay in the range of 20 to 50%.

On to `O=[N+]([O-])c1ccc(O[C@@H]2c3ccccc3C[C@@H]2N2CCOCC2)c(Cl)c1` (racemic) [Example 478, 4-[(1R,2S)-1-(2-chloro-4-nitrophenoxy)indan-2-yl]morpholine], for which the inhibition at 10 µM under setting [1] was 20 to 50%.

Consider `CCC(CC)N[C@@H]1Cc2ccccc2[C@H]1Oc1ccc(S(C)(=O)=O)cc1` (racemic) [Example 723, (1-Ethyl-propyl)-[rac-trans-(1,2)-1-(4-methanesulfonyl-phenoxy)-indan-2-yl]-amine], for which the inhibition at 10 µM under setting [1] is 20 to 50%.

For `O[C@@H]1CCN([C@H]2Cc3c(Cl)cc(Cl)cc3[C@@H]2Oc2ccc(F)cc2-c2ccn[nH]2)C1` [Example 137, (R)-1-{trans-(1S,2S)-4,6-dichloro-1-[4-fluoro-2-(2H-pyrazol-3-yl)phenoxy]indan-2-yl}pyrrolidin-3-ol], under setting [1], the inhibition at 10 µM is 20 to 50%.

`N[C@H]1CCCN([C@H]2CCc3ccccc3[C@@H]2Oc2ccc(-n3cncn3)cc2)C1` (racemic) [Example 171, (S)-1-[rac-trans-(1,2)-1-(4-[1,2,4]triazol-1-ylphenoxy)-1,2,3,4-tetrahydronaphthalen-2-yl]piperidin-3-ylamine]: under setting [1], the IC50 fell in the range of 1000 to 10000 nM.

Turning to `CS(=O)(=O)c1ccc(O[C@@H]2c3cc(F)cc(Cl)c3C[C@H]2N2CCC[C@@H](N)C2)cc1` (racemic) [Example 91, (R)-1-[rac-trans-(1,2)-4-chloro-6-fluoro-1-(4-methanesulfonylphenoxy)indan-2-yl]piperidin-3-ylamine], under setting [1], the IC50 is less than 1000 nM.

Turning to `Cc1nnc(C)n1-c1ccc(O[C@H]2c3cc(Cl)cc(Cl)c3C[C@@H]2N2CC[C@@H](F)C2)cc1` [Example 561, 4-{4-[trans-(1S,2S)-4,6-dichloro-2-((R)-3-fluoropyrrolidin-1-yl)indan-1-yloxy]phenyl}-3,5-dimethyl-4H-[1,2,4]triazole], the IC50 under setting [1] was less than 1000 nM.

In the case of `Cc1nnc(C)n1-c1ccc(O[C@H]2c3ccccc3C[C@@H]2N2CCC[C@@H](NCCC(F)(F)F)C2)cc1` [Example 1, ((R)-1-{trans-(1S,2S)-1-[4-(3,5-dimethyl-[1,2,4]triazol-4-yl)phenoxy]indan-2-yl}piperidin-3-yl)-(3,3,3-trifluoropropyl)amine], the IC50 under setting [1] lay within 1000 to 10000 nM.
